Measured values published in ChEMBL document CHEMBL1131779, “Synthesis and evaluation of potential complement inhibitory semisynthetic analogs of oleanolic acid” (Bioorg Med Chem Lett, 1999).

Organism: Homo sapiens
Experiment: The compound was tested in vitro for its inhibition of the classical pathway activation of human complement; call rule not given here
Assay type: functional
Work on `C=C(C)[C@@H]1CC[C@]2(C(=O)O)CC[C@]3(C)[C@H](CC[C@@H]4[C@@]5(C)CC[C@H](O)C(C)(C)[C@@H]5CC[C@]43C)[C@@H]12` [BETULINIC ACID] yielded an IC50 of 577 µM. For `CC1(C)CC[C@]2(C(=O)O)CC[C@]3(C)C(=CCC4[C@@]5(C)CC[C@H](OC(=O)CC(C)(C)C(=O)O)C(C)(C)C5CC[C@]43C)[C@@H]2C1` (some centres undefined), the IC50 was 108 µM. Work on `CC1(C)CC[C@]2(C(=O)O)CC[C@]3(C)C(=CC(=O)C4[C@@]5(C)CC[C@H](O)C(C)(C)C5CC[C@]43C)[C@@H]2C1` (some centres undefined) yielded an IC50 of 234 µM. For `CC(C)(CC(=O)O)CC(=O)O[C@H]1CC[C@@]2(C)C(CC[C@]3(C)C2CC=C2[C@@H]4CC(C)(C)CC[C@]4(C(=O)O)CC[C@]23C)C1(C)C` (some centres undefined), the IC50 was 103 µM. `CC1(C)CC[C@]2(C(=O)O)CC[C@]3(C)C(=CCC4[C@@]5(C)CC[C@H](OC(=O)COCC(=O)O)C(C)(C)C5CC[C@]43C)[C@@H]2C1` (some centres undefined) showed an IC50 of 31.4 µM. With `CC1(C)CC[C@]2(C(=O)NCC(=O)O)CC[C@]3(C)C(=CC[C@@H]4[C@@]5(C)CC[C@H](O)C(C)(C)[C@@H]5CC[C@]43C)[C@@H]2C1` the IC50 was 146 µM. `CC1(C)CC[C@]2(C(=O)NCCCCC(=O)O)CC[C@]3(C)C(=CCC4[C@@]5(C)CC[C@H](O)C(C)(C)C5CC[C@]43C)[C@@H]2C1` (some centres undefined) gave an IC50 of 31.8 µM. Work on `CC1(C)CC[C@]2(C(=O)O)CC[C@]3(C)C(=CC[C@@H]4[C@@]5(C)CC[C@H](O)C(C)(C)[C@@H]5CC[C@]43C)[C@@H]2C1` [OLEANOLIC_ACID] yielded an IC50 of 72.3 µM.

Organism: Homo sapiens
Experiment: The compound was tested in vitro for its inhibition of the classical pathway activation of human complement; Not active
Assay type: functional
With `CC1(C)CC[C@]2(C(N)=O)CC[C@]3(C)C(=CCC4[C@@]5(C)CC[C@H](O)C(C)(C)C5CC[C@]43C)[C@@H]2C1` (some centres undefined) the IC50 was “Not Active”. In the case of `CC(=O)O[C@H]1CC[C@@]2(C)C(CC[C@]3(C)C2CC=C2[C@@H]4CC(C)(C)CC[C@]4(C(N)=O)CC[C@]23C)C1(C)C` (some centres undefined), the IC50 is reported as “Not Active”. With `CC1(C)CC[C@]2(CO)CC[C@]3(C)C(=CCC4[C@@]5(C)CC[C@H](O)C(C)(C)C5CC[C@]43C)[C@@H]2C1` (some centres undefined) the IC50 was “Not Active”. With `CC1(C)CC[C@]2(C(=O)O)CC[C@]3(C)C(=CC[C@@H]4[C@@]5(C)CCC(=O)C(C)(C)[C@@H]5CC[C@]43C)[C@@H]2C1` [OLEANONIC ACID] the IC50 was “Not Active”. In the case of `COC(=O)[C@]12CCC(C)(C)C[C@H]1C1=CC[C@@H]3[C@@]4(C)CC[C@H](O)C(C)(C)[C@@H]4CC[C@@]3(C)[C@]1(C)CC2` [METHYL OLEANOLATE], the IC50 is reported as “Not Active”. In the case of `CC(=O)O[C@H]1CC[C@]2(C)[C@H]3CC=C4[C@@H]5CC(C)(C)CC[C@]5(C(=O)O)CC[C@@]4(C)[C@]3(C)CC[C@H]2C1(C)C` [ACETYL OLEANOLIC ACID], the IC50 is reported as “Not Active”. With `CC1(C)CC[C@]2(C(=O)NCCCCCCCCCCC(=O)O)CC[C@]3(C)C(=CCC4[C@@]5(C)CC[C@H](O)C(C)(C)C5CC[C@]43C)[C@@H]2C1` (some centres undefined) the IC50 was “Not Active”. For `CC(=O)O[C@H]1CC[C@@]2(C)C(CC[C@]3(C)C2C(=O)C=C2[C@@H]4CC(C)(C)CC[C@]4(C(=O)O)CC[C@]23C)C1(C)C` (some centres undefined), the IC50 was “Not Active”.

Tested on: SK-MEL
Experiment: Compound was tested for its cytotoxicity against human malignant melanoma cell line SK-MEL
Assay type: functional, cell-based
`C=C(C)[C@@H]1CC[C@]2(C(=O)O)CC[C@]3(C)[C@H](CC[C@@H]4[C@@]5(C)CC[C@H](O)C(C)(C)[C@@H]5CC[C@]43C)[C@@H]12` [BETULINIC ACID] showed an IC50 of 35 µM. `CC(=O)O[C@H]1CC[C@@]2(C)C(CC[C@]3(C)C2CC=C2[C@@H]4CC(C)(C)CC[C@]4(C(N)=O)CC[C@]23C)C1(C)C` (some centres undefined) showed an IC50 of 70 µM. Work on `CC1(C)CC[C@]2(C(=O)O)CC[C@]3(C)C(=CCC4[C@@]5(C)CC[C@H](OC(=O)CC(C)(C)C(=O)O)C(C)(C)C5CC[C@]43C)[C@@H]2C1` (some centres undefined) yielded an IC50 of 77 µM. In the case of `CC1(C)CC[C@]2(C(=O)O)CC[C@]3(C)C(=CC(=O)C4[C@@]5(C)CC[C@H](O)C(C)(C)C5CC[C@]43C)[C@@H]2C1` (some centres undefined), the IC50 is reported as 131 µM. Molecule `CC1(C)CC[C@]2(CO)CC[C@]3(C)C(=CCC4[C@@]5(C)CC[C@H](O)C(C)(C)C5CC[C@]43C)[C@@H]2C1` (some centres undefined) has an IC50 of 105 µM. Molecule `CC1(C)CC[C@]2(C(=O)O)CC[C@]3(C)C(=CC[C@@H]4[C@@]5(C)CCC(=O)C(C)(C)[C@@H]5CC[C@]43C)[C@@H]2C1` [OLEANONIC ACID] has an IC50 of 31 µM. `COC(=O)[C@]12CCC(C)(C)C[C@H]1C1=CC[C@@H]3[C@@]4(C)CC[C@H](O)C(C)(C)[C@@H]4CC[C@@]3(C)[C@]1(C)CC2` [METHYL OLEANOLATE] showed an IC50 of 103 µM. For `CC(C)(CC(=O)O)CC(=O)O[C@H]1CC[C@@]2(C)C(CC[C@]3(C)C2CC=C2[C@@H]4CC(C)(C)CC[C@]4(C(=O)O)CC[C@]23C)C1(C)C` (some centres undefined), the IC50 was 86 µM. Molecule `CC1(C)CC[C@]2(C(=O)O)CC[C@]3(C)C(=CCC4[C@@]5(C)CC[C@H](OC(=O)COCC(=O)O)C(C)(C)C5CC[C@]43C)[C@@H]2C1` (some centres undefined) has an IC50 of 93 µM. `CC1(C)CC[C@]2(C(=O)NCC(=O)O)CC[C@]3(C)C(=CC[C@@H]4[C@@]5(C)CC[C@H](O)C(C)(C)[C@@H]5CC[C@]43C)[C@@H]2C1` showed an IC50 of 115 µM. For `CC1(C)CC[C@]2(C(=O)NCCCCC(=O)O)CC[C@]3(C)C(=CCC4[C@@]5(C)CC[C@H](O)C(C)(C)C5CC[C@]43C)[C@@H]2C1` (some centres undefined), the IC50 was 127 µM. Work on `CC1(C)CC[C@]2(C(=O)O)CC[C@]3(C)C(=CC[C@@H]4[C@@]5(C)CC[C@H](O)C(C)(C)[C@@H]5CC[C@]43C)[C@@H]2C1` [OLEANOLIC_ACID] yielded an IC50 of 112 µM.

Tested on: SK-MEL
Experiment: Compound was tested for its cytotoxicity against human malignant melanoma cell line SK-MEL; NA = Not active
Assay type: functional, cell-based
With `CC1(C)CC[C@]2(C(N)=O)CC[C@]3(C)C(=CCC4[C@@]5(C)CC[C@H](O)C(C)(C)C5CC[C@]43C)[C@@H]2C1` (some centres undefined) the IC50 was “Not Active”. In the case of `CC(=O)O[C@H]1CC[C@]2(C)[C@H]3CC=C4[C@@H]5CC(C)(C)CC[C@]5(C(=O)O)CC[C@@]4(C)[C@]3(C)CC[C@H]2C1(C)C` [ACETYL OLEANOLIC ACID], the IC50 is reported as “Not Active”. In the case of `CC1(C)CC[C@]2(C(=O)NCCCCCCCCCCC(=O)O)CC[C@]3(C)C(=CCC4[C@@]5(C)CC[C@H](O)C(C)(C)C5CC[C@]43C)[C@@H]2C1` (some centres undefined), the IC50 is reported as “Not Active”. For `CC(=O)O[C@H]1CC[C@@]2(C)C(CC[C@]3(C)C2C(=O)C=C2[C@@H]4CC(C)(C)CC[C@]4(C(=O)O)CC[C@]23C)C1(C)C` (some centres undefined), the IC50 was “Not Active”.

Tested on: not listed separately
Experiment: In vitro therapeutic index was determined. (Therapeutic index = IC50 cytotoxicity/IC50 complement inhibition)
Assay type: functional
In the case of `C=C(C)[C@@H]1CC[C@]2(C(=O)O)CC[C@]3(C)[C@H](CC[C@@H]4[C@@]5(C)CC[C@H](O)C(C)(C)[C@@H]5CC[C@]43C)[C@@H]12` [BETULINIC ACID], the TI is reported as 0.06. Work on `CC1(C)CC[C@]2(C(=O)O)CC[C@]3(C)C(=CCC4[C@@]5(C)CC[C@H](OC(=O)CC(C)(C)C(=O)O)C(C)(C)C5CC[C@]43C)[C@@H]2C1` (some centres undefined) yielded a TI of 0.71. With `CC1(C)CC[C@]2(C(=O)O)CC[C@]3(C)C(=CC(=O)C4[C@@]5(C)CC[C@H](O)C(C)(C)C5CC[C@]43C)[C@@H]2C1` (some centres undefined) the TI was 0.56. With `CC(C)(CC(=O)O)CC(=O)O[C@H]1CC[C@@]2(C)C(CC[C@]3(C)C2CC=C2[C@@H]4CC(C)(C)CC[C@]4(C(=O)O)CC[C@]23C)C1(C)C` (some centres undefined) the TI was 0.83. With `CC1(C)CC[C@]2(C(=O)O)CC[C@]3(C)C(=CCC4[C@@]5(C)CC[C@H](OC(=O)COCC(=O)O)C(C)(C)C5CC[C@]43C)[C@@H]2C1` (some centres undefined) the TI was 2.96. Molecule `CC1(C)CC[C@]2(C(=O)NCC(=O)O)CC[C@]3(C)C(=CC[C@@H]4[C@@]5(C)CC[C@H](O)C(C)(C)[C@@H]5CC[C@]43C)[C@@H]2C1` has a TI of 0.78. In the case of `CC1(C)CC[C@]2(C(=O)NCCCCC(=O)O)CC[C@]3(C)C(=CCC4[C@@]5(C)CC[C@H](O)C(C)(C)C5CC[C@]43C)[C@@H]2C1` (some centres undefined), the TI is reported as 3.99. Work on `CC1(C)CC[C@]2(C(=O)O)CC[C@]3(C)C(=CC[C@@H]4[C@@]5(C)CC[C@H](O)C(C)(C)[C@@H]5CC[C@]43C)[C@@H]2C1` [OLEANOLIC_ACID] yielded a TI of 1.55.

Tested on: not listed separately
Experiment: The compound was tested for its apoptotic activity; No DNA migration observed
Assay type: functional
For `CC1(C)CC[C@]2(C(N)=O)CC[C@]3(C)C(=CCC4[C@@]5(C)CC[C@H](O)C(C)(C)C5CC[C@]43C)[C@@H]2C1` (some centres undefined), the Apoptotic activity was “No DNA migration observed”. With `CC(=O)O[C@H]1CC[C@@]2(C)C(CC[C@]3(C)C2CC=C2[C@@H]4CC(C)(C)CC[C@]4(C(N)=O)CC[C@]23C)C1(C)C` (some centres undefined) the Apoptotic activity was “No DNA migration observed”. In the case of `CC1(C)CC[C@]2(CO)CC[C@]3(C)C(=CCC4[C@@]5(C)CC[C@H](O)C(C)(C)C5CC[C@]43C)[C@@H]2C1` (some centres undefined), the Apoptotic activity is reported as “No DNA migration observed”. For `COC(=O)[C@]12CCC(C)(C)C[C@H]1C1=CC[C@@H]3[C@@]4(C)CC[C@H](O)C(C)(C)[C@@H]4CC[C@@]3(C)[C@]1(C)CC2` [METHYL OLEANOLATE], the Apoptotic activity was “No DNA migration observed”. With `CC1(C)CC[C@]2(C(=O)NCCCCCCCCCCC(=O)O)CC[C@]3(C)C(=CCC4[C@@]5(C)CC[C@H](O)C(C)(C)C5CC[C@]43C)[C@@H]2C1` (some centres undefined) the Apoptotic activity was “No DNA migration observed”. In the case of `CC1(C)CC[C@]2(C(=O)NCC(=O)O)CC[C@]3(C)C(=CC[C@@H]4[C@@]5(C)CC[C@H](O)C(C)(C)[C@@H]5CC[C@]43C)[C@@H]2C1`, the Apoptotic activity is reported as “No DNA migration observed”. In the case of `CC(=O)O[C@H]1CC[C@@]2(C)C(CC[C@]3(C)C2C(=O)C=C2[C@@H]4CC(C)(C)CC[C@]4(C(=O)O)CC[C@]23C)C1(C)C` (some centres undefined), the Apoptotic activity is reported as “No DNA migration observed”.

Tested on: not listed separately
Experiment: The compound was tested for its apoptotic activity; no DNA migration observed
Assay type: functional
With `CC(=O)O[C@H]1CC[C@]2(C)[C@H]3CC=C4[C@@H]5CC(C)(C)CC[C@]5(C(=O)O)CC[C@@]4(C)[C@]3(C)CC[C@H]2C1(C)C` [ACETYL OLEANOLIC ACID] the Apoptotic activity was “no DNA migration observed”. For `CC1(C)CC[C@]2(C(=O)O)CC[C@]3(C)C(=CC[C@@H]4[C@@]5(C)CC[C@H](O)C(C)(C)[C@@H]5CC[C@]43C)[C@@H]2C1` [OLEANOLIC_ACID], the Apoptotic activity was “no DNA migration observed”.
